Legend:
Test in all cases: Kinome scan
Assay type in all cases: binding
[1] = biological target: T1, ADCK3 (Homo sapiens, UniProt Q8NI60); conditions: 1000 nM
T1 construct: purchased Eurofins DiscoverX Corporation
Experimental: (§1) The kinome scan assays were carried out at Eurofins DiscoverX Corporation. For kinome scan profiling of compound 1g, it was screened at 1μM against 96 kinases (N = 2 independent experiments). The results for binding interactions are reported as % inhibition, where higher values indicate strong affinity; see the Supporting Information, Table S1 for full kinome profile.

[2] = biological target: T2, AKT2 (Homo sapiens, UniProt P31751); conditions: 1000 nM
T2 construct: purchased Eurofins DiscoverX Corporation
Experimental: as §1

[3] = biological target: T3, AXL (Homo sapiens, UniProt P30530); conditions: 1000 nM
T3 construct: purchased Eurofins DiscoverX Corporation
Experimental: as §1

[4] = biological target: T4, BRAF (Homo sapiens, UniProt P15056); conditions: 1000 nM
T4 construct: purchased Eurofins DiscoverX Corporation
Experimental: as §1

[5] = biological target: T5, BTK (Homo sapiens, UniProt Q06187); conditions: 1000 nM
T5 construct: purchased Eurofins DiscoverX Corporation
Experimental: as §1

[6] = biological target: T6, CDK2 (Homo sapiens, UniProt P24941); conditions: 1000 nM
T6 construct: purchased Eurofins DiscoverX Corporation
Experimental: as §1

[7] = biological target: T7, CDK7 (Homo sapiens, UniProt P50613); conditions: 1000 nM
T7 construct: purchased Eurofins DiscoverX Corporation
Experimental: as §1

[8] = biological target: T8, CDK9 (Homo sapiens, UniProt P50750); conditions: 1000 nM
T8 construct: purchased Eurofins DiscoverX Corporation
Experimental: as §1

[9] = biological target: T9, CHEK1 (Homo sapiens, UniProt O14757); conditions: 1000 nM
T9 construct: purchased Eurofins DiscoverX Corporation
Experimental: as §1

[10] = biological target: T10, DCAMKL1 (Homo sapiens, UniProt O15075); conditions: 1000 nM
T10 construct: purchased Eurofins DiscoverX Corporation
Experimental: as §1

[11] = biological target: T11, ERBB2 (Homo sapiens, UniProt P04626); conditions: 1000 nM
T11 construct: purchased Eurofins DiscoverX Corporation
Experimental: as §1

[12] = biological target: T12, ERBB4 (Homo sapiens, UniProt Q15303); conditions: 1000 nM
T12 construct: purchased Eurofins DiscoverX Corporation
Experimental: as §1

[13] = biological target: T13, ERK1 (Homo sapiens, UniProt P27361); conditions: 1000 nM
T13 construct: purchased Eurofins DiscoverX Corporation
Experimental: as §1

[14] = biological target: T14, FGFR2 (Homo sapiens, UniProt P21802); conditions: 1000 nM
T14 construct: purchased Eurofins DiscoverX Corporation
Experimental: as §1

[15] = biological target: T15, FGFR3 (Homo sapiens, UniProt P22607); conditions: 1000 nM
T15 construct: purchased Eurofins DiscoverX Corporation
Experimental: as §1

[16] = biological target: T16, FLT3 (Homo sapiens, UniProt P36888); conditions: 1000 nM
T16 construct: purchased Eurofins DiscoverX Corporation
Experimental: as §1

[17] = biological target: T17, IKK-beta (Homo sapiens, UniProt O14920); conditions: 1000 nM
T17 construct: purchased Eurofins DiscoverX Corporation
Experimental: as §1

[18] = biological target: T18, INSR (Homo sapiens, UniProt P06213); conditions: 1000 nM
T18 construct: purchased Eurofins DiscoverX Corporation
Experimental: as §1

[19] = biological target: T19, JAK3(JH1domain-catalytic) (Homo sapiens, UniProt P52333); conditions: 1000 nM
T19 construct: JAK3(JH1domain-catalytic); purchased Eurofins DiscoverX Corporation
Experimental: as §1

[20] = biological target: T20, JNK1 (Homo sapiens, UniProt P45983); conditions: 1000 nM
T20 construct: purchased Eurofins DiscoverX Corporation
Experimental: as §1

[21] = biological target: T21, JNK3 (Homo sapiens, UniProt P53779); conditions: 1000 nM
T21 construct: purchased Eurofins DiscoverX Corporation
Experimental: as §1

[22] = biological target: T22, KIT (Homo sapiens, UniProt P10721); conditions: 1000 nM
T22 construct: purchased Eurofins DiscoverX Corporation
Experimental: as §1

[23] = biological target: T23, MAP3K4 (Homo sapiens, UniProt Q9Y6R4); conditions: 1000 nM
T23 construct: purchased Eurofins DiscoverX Corporation
Experimental: as §1

[24] = biological target: T24, MAPKAPK2 (Homo sapiens, UniProt P49137); conditions: 1000 nM
T24 construct: purchased Eurofins DiscoverX Corporation
Experimental: as §1

[25] = biological target: T25, MKNK1 (Homo sapiens, UniProt Q9BUB5); conditions: 1000 nM
T25 construct: purchased Eurofins DiscoverX Corporation
Experimental: as §1

[26] = biological target: T26, MKNK2 (Homo sapiens, UniProt Q9HBH9); conditions: 1000 nM
T26 construct: purchased Eurofins DiscoverX Corporation
Experimental: as §1

[27] = biological target: T27, PAK1 (Homo sapiens, UniProt Q13153); conditions: 1000 nM
T27 construct: purchased Eurofins DiscoverX Corporation
Experimental: as §1

[28] = biological target: T28, PAK2 (Homo sapiens, UniProt Q13177); conditions: 1000 nM
T28 construct: purchased Eurofins DiscoverX Corporation
Experimental: as §1

[29] = biological target: T29, PAK4 (Homo sapiens, UniProt O96013); conditions: 1000 nM
T29 construct: purchased Eurofins DiscoverX Corporation
Experimental: as §1

[30] = biological target: T30, PCTK1 (Homo sapiens, UniProt Q00536); conditions: 1000 nM
T30 construct: purchased Eurofins DiscoverX Corporation
Experimental: as §1

[31] = biological target: T31, PDGFRB (Homo sapiens, UniProt P09619); conditions: 1000 nM
T31 construct: purchased Eurofins DiscoverX Corporation
Experimental: as §1

[32] = biological target: T32, PIK3C2B (Homo sapiens, UniProt O00750); conditions: 1000 nM
T32 construct: purchased Eurofins DiscoverX Corporation
Experimental: as §1

[33] = biological target: T33, PIK3CG (Homo sapiens, UniProt P48736); conditions: 1000 nM
T33 construct: purchased Eurofins DiscoverX Corporation
Experimental: as §1

[34] = biological target: T34, PIM2 (Homo sapiens, UniProt Q9P1W9); conditions: 1000 nM
T34 construct: purchased Eurofins DiscoverX Corporation
Experimental: as §1

[35] = biological target: T35, PIM3 (Homo sapiens, UniProt Q86V86); conditions: 1000 nM
T35 construct: purchased Eurofins DiscoverX Corporation
Experimental: as §1

[36] = biological target: T36, PKAC-alpha (Homo sapiens, UniProt P17612); conditions: 1000 nM
T36 construct: purchased Eurofins DiscoverX Corporation
Experimental: as §1

[37] = biological target: T37, PLK1 (Homo sapiens, UniProt P53350); conditions: 1000 nM
T37 construct: purchased Eurofins DiscoverX Corporation
Experimental: as §1

[38] = biological target: T38, RAF1 (Homo sapiens, UniProt P04049); conditions: 1000 nM
T38 construct: purchased Eurofins DiscoverX Corporation
Experimental: as §1

[39] = biological target: T39, RET (Homo sapiens, UniProt P07949); conditions: 1000 nM
T39 construct: purchased Eurofins DiscoverX Corporation
Experimental: as §1

[40] = biological target: T40, TRKA (NTRK1) (Homo sapiens, UniProt P04629)
T40 construct: purchased Eurofins DiscoverX Corporation
Experimental: as §1

[41] = biological target: T41, TYK2(JH1domain-catalytic) (Homo sapiens, UniProt P29597); conditions: 1000 nM
T41 construct: TYK2(JH1domain-catalytic); purchased Eurofins DiscoverX Corporation
Experimental: as §1

[42] = biological target: T42, VEGFR2 (Homo sapiens, UniProt P35968); conditions: 1000 nM
T42 construct: purchased Eurofins DiscoverX Corporation
Experimental: as §1

T40 sequence (P04629 33-796): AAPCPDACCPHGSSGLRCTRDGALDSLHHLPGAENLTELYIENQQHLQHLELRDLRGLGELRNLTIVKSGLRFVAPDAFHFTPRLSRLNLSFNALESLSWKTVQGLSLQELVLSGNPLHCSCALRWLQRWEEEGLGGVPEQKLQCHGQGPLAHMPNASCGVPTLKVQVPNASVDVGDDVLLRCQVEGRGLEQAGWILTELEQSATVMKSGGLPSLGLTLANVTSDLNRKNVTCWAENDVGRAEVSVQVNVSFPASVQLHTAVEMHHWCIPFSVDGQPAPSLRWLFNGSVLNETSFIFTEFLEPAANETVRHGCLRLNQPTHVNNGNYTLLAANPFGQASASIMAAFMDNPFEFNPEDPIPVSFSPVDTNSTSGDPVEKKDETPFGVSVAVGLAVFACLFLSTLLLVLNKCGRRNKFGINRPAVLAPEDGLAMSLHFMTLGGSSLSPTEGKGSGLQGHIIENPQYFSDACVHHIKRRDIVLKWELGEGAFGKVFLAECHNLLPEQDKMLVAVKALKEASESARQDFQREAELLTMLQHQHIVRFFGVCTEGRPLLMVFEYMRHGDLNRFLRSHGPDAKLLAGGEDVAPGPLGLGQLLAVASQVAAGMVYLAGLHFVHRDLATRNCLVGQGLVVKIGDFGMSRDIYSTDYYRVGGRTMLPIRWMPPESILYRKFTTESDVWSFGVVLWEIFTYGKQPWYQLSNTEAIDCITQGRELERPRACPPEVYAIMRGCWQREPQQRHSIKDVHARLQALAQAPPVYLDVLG
T5 sequence (Q06187 whole entry): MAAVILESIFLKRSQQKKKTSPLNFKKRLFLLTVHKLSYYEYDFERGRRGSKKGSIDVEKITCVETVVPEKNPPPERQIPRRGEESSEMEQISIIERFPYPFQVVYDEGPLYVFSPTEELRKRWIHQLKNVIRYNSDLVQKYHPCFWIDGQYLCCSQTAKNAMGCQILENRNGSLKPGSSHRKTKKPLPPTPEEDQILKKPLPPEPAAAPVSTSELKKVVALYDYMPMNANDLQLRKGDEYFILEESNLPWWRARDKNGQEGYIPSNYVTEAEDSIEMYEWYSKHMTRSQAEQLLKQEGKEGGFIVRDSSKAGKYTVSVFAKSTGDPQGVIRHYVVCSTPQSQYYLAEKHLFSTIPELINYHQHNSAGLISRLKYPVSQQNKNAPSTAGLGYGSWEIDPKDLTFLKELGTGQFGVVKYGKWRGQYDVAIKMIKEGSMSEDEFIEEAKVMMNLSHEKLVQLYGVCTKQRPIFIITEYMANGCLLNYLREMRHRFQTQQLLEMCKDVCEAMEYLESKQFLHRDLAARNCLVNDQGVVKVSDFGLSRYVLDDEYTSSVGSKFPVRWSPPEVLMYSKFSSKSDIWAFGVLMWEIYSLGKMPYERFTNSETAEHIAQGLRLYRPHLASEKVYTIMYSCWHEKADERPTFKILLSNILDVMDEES
T8 sequence (P50750 whole entry): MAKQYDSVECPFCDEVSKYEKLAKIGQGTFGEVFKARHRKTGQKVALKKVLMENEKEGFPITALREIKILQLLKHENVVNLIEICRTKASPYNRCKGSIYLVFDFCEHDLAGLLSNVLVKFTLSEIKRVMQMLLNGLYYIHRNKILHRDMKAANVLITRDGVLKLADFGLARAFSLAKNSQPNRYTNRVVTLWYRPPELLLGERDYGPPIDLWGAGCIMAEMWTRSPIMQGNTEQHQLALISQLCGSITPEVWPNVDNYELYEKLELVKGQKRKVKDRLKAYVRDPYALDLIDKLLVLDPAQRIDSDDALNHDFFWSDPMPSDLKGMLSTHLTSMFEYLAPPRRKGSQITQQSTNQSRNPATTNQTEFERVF
T12 sequence (Q15303 26-1308): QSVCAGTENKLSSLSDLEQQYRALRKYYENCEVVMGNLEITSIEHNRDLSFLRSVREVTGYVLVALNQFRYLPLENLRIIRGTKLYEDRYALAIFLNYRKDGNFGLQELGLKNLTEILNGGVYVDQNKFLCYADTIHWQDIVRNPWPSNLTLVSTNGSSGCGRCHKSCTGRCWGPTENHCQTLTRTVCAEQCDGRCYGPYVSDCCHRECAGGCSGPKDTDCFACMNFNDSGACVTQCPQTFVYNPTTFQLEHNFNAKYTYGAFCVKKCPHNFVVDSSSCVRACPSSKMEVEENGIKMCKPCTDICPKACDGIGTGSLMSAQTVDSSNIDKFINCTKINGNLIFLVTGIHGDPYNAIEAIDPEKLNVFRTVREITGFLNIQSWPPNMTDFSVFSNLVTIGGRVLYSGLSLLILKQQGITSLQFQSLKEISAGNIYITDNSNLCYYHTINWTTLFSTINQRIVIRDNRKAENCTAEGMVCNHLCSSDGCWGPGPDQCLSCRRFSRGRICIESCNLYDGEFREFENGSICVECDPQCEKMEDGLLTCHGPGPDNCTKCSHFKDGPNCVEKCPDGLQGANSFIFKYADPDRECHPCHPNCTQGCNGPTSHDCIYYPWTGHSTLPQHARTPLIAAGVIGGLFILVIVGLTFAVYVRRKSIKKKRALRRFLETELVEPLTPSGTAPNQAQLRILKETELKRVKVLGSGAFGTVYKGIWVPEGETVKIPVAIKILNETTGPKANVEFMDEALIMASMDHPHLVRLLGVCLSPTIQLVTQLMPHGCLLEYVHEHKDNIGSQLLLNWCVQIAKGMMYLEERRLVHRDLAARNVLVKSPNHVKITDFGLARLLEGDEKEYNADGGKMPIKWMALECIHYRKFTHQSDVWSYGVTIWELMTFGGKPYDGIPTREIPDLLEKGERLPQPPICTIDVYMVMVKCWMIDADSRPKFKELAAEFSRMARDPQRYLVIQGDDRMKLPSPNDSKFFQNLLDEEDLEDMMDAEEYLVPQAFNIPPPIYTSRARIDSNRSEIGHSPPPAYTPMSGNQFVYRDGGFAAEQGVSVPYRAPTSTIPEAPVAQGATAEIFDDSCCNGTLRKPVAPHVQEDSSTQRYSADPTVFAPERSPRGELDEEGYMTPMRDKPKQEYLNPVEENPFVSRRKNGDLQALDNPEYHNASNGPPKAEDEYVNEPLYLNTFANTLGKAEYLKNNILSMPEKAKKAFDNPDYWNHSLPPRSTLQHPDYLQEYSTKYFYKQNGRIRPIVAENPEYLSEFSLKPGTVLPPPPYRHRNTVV
T29 sequence (O96013 whole entry): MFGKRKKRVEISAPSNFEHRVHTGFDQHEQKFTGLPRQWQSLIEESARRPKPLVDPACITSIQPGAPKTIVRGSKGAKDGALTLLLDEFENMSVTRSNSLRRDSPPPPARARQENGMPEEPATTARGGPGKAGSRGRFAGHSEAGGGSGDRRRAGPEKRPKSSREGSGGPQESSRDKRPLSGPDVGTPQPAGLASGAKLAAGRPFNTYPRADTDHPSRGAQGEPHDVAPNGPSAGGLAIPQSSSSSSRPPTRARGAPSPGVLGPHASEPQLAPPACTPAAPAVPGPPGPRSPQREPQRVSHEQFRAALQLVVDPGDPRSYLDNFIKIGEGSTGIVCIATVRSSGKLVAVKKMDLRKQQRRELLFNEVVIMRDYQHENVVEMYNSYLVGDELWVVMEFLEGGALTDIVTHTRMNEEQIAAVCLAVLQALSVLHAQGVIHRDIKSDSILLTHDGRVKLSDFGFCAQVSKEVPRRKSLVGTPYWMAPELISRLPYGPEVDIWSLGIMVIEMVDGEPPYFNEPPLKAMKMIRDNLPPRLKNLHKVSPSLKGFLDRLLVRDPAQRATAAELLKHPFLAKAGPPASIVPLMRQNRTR
T2 sequence (P31751 whole entry): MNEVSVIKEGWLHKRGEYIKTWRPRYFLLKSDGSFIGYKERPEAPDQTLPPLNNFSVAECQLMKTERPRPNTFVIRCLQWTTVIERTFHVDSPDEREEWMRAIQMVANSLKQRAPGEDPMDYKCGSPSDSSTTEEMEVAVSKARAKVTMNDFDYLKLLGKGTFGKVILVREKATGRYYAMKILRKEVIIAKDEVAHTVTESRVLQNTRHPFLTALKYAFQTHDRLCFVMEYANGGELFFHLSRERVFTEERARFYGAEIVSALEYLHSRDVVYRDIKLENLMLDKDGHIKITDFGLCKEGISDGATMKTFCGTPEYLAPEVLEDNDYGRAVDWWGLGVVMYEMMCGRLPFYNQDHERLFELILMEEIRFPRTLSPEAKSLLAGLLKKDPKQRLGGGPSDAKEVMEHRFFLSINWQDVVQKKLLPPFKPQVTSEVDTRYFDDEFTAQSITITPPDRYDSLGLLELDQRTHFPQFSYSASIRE
T26 sequence (Q9HBH9 whole entry): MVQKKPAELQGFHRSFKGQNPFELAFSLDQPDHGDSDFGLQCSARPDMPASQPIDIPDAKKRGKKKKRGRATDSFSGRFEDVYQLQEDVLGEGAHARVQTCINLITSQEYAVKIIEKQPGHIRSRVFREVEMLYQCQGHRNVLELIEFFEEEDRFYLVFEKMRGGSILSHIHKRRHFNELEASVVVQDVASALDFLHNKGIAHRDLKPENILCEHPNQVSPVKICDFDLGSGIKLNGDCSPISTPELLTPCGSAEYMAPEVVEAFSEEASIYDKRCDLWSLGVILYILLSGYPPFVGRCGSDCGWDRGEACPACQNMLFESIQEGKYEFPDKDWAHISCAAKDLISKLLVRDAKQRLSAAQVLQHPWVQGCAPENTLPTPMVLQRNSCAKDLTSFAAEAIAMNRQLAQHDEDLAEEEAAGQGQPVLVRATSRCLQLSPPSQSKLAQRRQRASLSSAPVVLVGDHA

inhibition at 1 µM [1]: 8%
inhibition at 1 µM [2]: 4%
inhibition at 1 µM [3]: 7%
inhibition at 1 µM [4]: 0%
inhibition at 1 µM [5]: 0%
inhibition at 1 µM [6]: 9%
inhibition at 1 µM [7]: 52.3%
inhibition at 1 µM [8]: 4%
inhibition at 1 µM [9]: 0%
inhibition at 1 µM [10]: 6%
inhibition at 1 µM [11]: 15%
inhibition at 1 µM [12]: 3%
inhibition at 1 µM [13]: 4%
inhibition at 1 µM [14]: 12%
inhibition at 1 µM [15]: 10%
inhibition at 1 µM [16]: 27%
inhibition at 1 µM [17]: 0%
inhibition at 1 µM [18]: 5%
inhibition at 1 µM [19]: 0%
inhibition at 1 µM [20]: 17%
inhibition at 1 µM [21]: 13%
inhibition at 1 µM [22]: 1%
inhibition at 1 µM [23]: 29%
inhibition at 1 µM [24]: 0%
inhibition at 1 µM [25]: 0%
inhibition at 1 µM [26]: 62%
inhibition at 1 µM [27]: 18%
inhibition at 1 µM [28]: 44%
inhibition at 1 µM [29]: 50%
inhibition at 1 µM [30]: 0%
inhibition at 1 µM [31]: 8%
inhibition at 1 µM [32]: 1%
inhibition at 1 µM [33]: 0%
inhibition at 1 µM [34]: 3%
inhibition at 1 µM [35]: 25%
inhibition at 1 µM [36]: 11%
inhibition at 1 µM [37]: 0%
inhibition at 1 µM [38]: 8%
inhibition at 1 µM [39]: 11%
remaining binding at 1 µM ([40]; 1 μM): < 20%
inhibition at 1 µM ([40]; 1000 nM, TRKA (NTRK1)): 95.1%
inhibition at 1 µM [41]: 70%
inhibition at 1 µM [42]: 30%
Compound: C#Cc1cn([C@@H]2S[C@H](CO)[C@@H](O)[C@H]2O)c2ncnc(N)c12 [Compound 1g, (2R,3R,4S,5R)-2-(4-Amino-5-ethynyl-7H-pyrrolo[2,3-d]pyrimidin-7-yl)-5-(hydroxymethyl)tetrahydrothiophene-3,4-diol]
